Seven compounds from patent publication US7163946B2 (Ligand Pharmaceuticals Incorporated, priority 2002, dated 2007) can be followed below.

Assay type in all cases: cell-based
Assay [1] has as its target T1, hPR (Homo sapiens, UniProt P06401).
T1 sequence (P06401 679-933 limits assumed): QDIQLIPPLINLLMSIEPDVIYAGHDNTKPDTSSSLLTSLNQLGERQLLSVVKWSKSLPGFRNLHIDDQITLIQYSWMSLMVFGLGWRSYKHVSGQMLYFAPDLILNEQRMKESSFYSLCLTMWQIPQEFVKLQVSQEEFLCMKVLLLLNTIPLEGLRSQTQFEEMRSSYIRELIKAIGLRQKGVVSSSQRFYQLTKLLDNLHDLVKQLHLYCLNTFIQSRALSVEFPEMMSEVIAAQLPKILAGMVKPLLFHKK
The assay can be described thus: T47D alkaline phosphatase assay, agonist mode. As to conditions: T47D human breast cancer cells; for Emax: T47D, read-out: hPR Agonist T47D cells Eff. (%).
Excerpt: (§1) The potential tissue-selectivities of the selected analogues were examined by using the T47D alkaline phosphatase assay that was developed from human breast cancer cells with endogenous PRs.

Assay [2] concerns the target T1, hPR. In words: T47D alkaline phosphatase assay, antagonist mode. The conditions noted are these: T47D human breast cancer cells; for Emax: read-out: hPR Antagonists T47D Cells Eff. (%); for IC50: read-out: hPR Antagonists T47D Cells IC50.
Excerpt: as §1
The target in another assay is T2, hGR (Homo sapiens, UniProt P04150).
T2 sequence (P04150 1-777): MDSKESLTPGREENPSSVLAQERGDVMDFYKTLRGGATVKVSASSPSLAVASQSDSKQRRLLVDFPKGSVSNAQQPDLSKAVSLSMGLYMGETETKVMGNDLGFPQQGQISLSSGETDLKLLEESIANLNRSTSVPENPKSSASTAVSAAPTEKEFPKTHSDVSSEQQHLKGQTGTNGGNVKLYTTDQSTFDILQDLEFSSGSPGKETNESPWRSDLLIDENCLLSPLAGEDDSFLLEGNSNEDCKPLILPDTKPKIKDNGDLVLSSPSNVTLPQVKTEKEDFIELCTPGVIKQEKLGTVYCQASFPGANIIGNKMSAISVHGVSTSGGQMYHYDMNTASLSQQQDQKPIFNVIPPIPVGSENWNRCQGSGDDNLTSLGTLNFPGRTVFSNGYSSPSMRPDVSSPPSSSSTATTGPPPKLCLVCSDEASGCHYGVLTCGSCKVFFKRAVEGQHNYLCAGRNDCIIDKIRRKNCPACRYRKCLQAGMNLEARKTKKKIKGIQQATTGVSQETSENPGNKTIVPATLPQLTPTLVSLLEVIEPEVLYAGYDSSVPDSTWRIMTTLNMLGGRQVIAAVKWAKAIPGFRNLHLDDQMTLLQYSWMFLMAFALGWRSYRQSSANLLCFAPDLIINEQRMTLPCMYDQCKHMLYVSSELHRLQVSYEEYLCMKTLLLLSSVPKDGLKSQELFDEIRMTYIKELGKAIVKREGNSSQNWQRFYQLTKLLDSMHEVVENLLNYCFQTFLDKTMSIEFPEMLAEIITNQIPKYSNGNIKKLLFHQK
The assay can be described thus: hGR cotransfection assay (potency ratio to hPR). As to conditions: receptor-selectivity potency ratio, cotransfection assays.

In assay [3] the target is T3, human mineralocorticoid receptor (hMR) (Homo sapiens, UniProt P08235).
T3 sequence (P08235 1-984): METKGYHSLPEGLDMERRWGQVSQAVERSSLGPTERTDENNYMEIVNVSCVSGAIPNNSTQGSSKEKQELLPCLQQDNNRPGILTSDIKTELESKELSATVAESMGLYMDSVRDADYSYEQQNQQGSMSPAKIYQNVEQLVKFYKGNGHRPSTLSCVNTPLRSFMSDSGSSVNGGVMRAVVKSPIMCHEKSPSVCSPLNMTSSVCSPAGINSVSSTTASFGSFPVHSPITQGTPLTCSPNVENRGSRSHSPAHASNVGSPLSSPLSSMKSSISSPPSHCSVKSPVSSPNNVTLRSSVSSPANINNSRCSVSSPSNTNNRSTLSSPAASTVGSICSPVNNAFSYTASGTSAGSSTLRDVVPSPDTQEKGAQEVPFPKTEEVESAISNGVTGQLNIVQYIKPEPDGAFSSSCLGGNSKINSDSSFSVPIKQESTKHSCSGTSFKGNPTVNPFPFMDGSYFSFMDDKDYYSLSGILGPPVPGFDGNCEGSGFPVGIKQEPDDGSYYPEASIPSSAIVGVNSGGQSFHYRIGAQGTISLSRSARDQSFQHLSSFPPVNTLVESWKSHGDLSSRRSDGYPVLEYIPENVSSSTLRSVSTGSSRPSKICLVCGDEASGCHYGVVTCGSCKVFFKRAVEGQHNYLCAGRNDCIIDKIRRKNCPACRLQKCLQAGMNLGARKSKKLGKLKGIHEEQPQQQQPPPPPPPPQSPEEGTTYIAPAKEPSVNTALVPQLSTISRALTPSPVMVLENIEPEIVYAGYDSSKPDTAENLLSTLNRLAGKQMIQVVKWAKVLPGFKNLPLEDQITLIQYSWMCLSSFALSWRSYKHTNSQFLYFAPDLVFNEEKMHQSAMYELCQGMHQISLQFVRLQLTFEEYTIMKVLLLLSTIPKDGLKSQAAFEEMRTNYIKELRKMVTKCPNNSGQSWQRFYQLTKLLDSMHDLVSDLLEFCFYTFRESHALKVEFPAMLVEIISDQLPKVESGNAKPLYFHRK
In words: hMR cotransfection assay (potency ratio to hPR). As to conditions: receptor-selectivity potency ratio, cotransfection assays.
Description: (§2) Antagonist efficacy was determined as a function (%) of maximal inhibition of a reference agonist at EC50 concentration. All the cotransfection experiments were carried out in 96-well plates by automation (Beckman Biomomek automated workstation).

In assay [4] the target is T4, human estrogen receptor (hER) (Homo sapiens, UniProt P03372).
T4 sequence (P03372 1-595): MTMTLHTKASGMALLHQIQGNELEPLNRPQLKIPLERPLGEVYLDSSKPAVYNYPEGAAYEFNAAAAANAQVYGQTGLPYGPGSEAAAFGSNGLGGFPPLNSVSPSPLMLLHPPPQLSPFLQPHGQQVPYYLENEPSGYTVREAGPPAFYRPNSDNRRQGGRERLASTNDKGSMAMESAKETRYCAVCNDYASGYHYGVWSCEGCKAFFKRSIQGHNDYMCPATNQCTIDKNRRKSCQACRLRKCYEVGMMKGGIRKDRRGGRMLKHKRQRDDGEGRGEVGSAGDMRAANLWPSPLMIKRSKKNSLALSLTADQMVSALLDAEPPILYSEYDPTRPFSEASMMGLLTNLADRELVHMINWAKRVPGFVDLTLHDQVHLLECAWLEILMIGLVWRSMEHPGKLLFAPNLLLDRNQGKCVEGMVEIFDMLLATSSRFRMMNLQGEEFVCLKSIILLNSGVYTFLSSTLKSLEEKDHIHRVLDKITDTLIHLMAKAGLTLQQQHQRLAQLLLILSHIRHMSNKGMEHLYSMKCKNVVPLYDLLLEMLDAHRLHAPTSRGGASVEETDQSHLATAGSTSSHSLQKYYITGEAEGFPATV
The assay can be described thus: hER cotransfection assay (potency ratio to hPR). As to conditions: receptor-selectivity potency ratio, cotransfection assays.
Description: as §2

Description for hGR: as §2

One may read the EC50 as the concentration at which the effect is half-maximal. In general, IC50 refers to the concentration that gives 50% inhibition. Regarding `CC1=CC(C)(C)Nc2ccc3c(c21)/C(=C/c1ccccc1)Oc1c(F)cc(F)cc1-3` [Compound 10, 7,9-difluoro-5(Z)-benzylidene-1,2-dihydro-2,2,4-trimethyl-5H-chromeno[3,4-f]quinoline], at hPR [1], the EC50 was found to be 30 nM and the Emax was 54%. Moreover, on hPR [2], the Emax came to 49% and the IC50 turned out to be 97 nM. The “hGR EC50 or IC50/hPR EC50” value on hGR is recorded as 290. The “hMR EC50 or IC50/hPR EC50” value in assay [3] is reported as over 1000. Also, the “hER EC50 or IC50/hPR EC50” value in assay [4] was over 1000.
In the case of `COc1ccccc1/C=C1\Oc2c(F)cc(F)cc2-c2ccc3c(c21)C(C)=CC(C)(C)N3` [Compound 18, 7,9-difluoro-5(Z)-(2-methoxybenzylidene)-1,2-dihydro-2,2,4-trimethyl-5H-chromeno[3,4-f]quinoline], on hPR [1], the EC50 is 17 nM and the Emax turned out to be 57%. At hPR [2], the Emax was 58% and the IC50 worked out at 55 nM. Moreover, the “hGR EC50 or IC50/hPR EC50” value at hGR was 77. Moreover, the “hMR EC50 or IC50/hPR EC50” value in assay [3] is recorded as over 1000. In addition, the “hER EC50 or IC50/hPR EC50” value in assay [4] is listed as over 1000.
On to `CC1=CC(C)(C)Nc2ccc3c(c21)/C(=C/c1ccsc1)Oc1c(F)cc(F)cc1-3` [Compound 30, 7,9-difluoro-5(Z)-(3-thienylmethylidene)-1,2-dihydro-2,2,4-trimethyl-5H-chromeno[3,4-f]quinoline], for which, on hPR [1], the EC50 came out at 33 nM and the Emax came to 66%. In addition, on hPR [2], the Emax is 44% and the IC50 is 840 nM. In addition, the “hGR EC50 or IC50/hPR EC50” value on hGR is recorded as 19. Further, in assay [3], the “hMR EC50 or IC50/hPR EC50” value is on record as over 1000. In addition, in assay [4], the “hER EC50 or IC50/hPR EC50” value is over 1000.
`CC1=CC(C)(C)Nc2ccc3c(c21)/C(=C/c1ccncc1)Oc1c(F)cc(F)cc1-3` [Compound 14, 7,9-difluoro-5(Z)-(4-picolylidene)-1,2-dihydro-2,2,4-trimethyl-5H-chromeno[3,4-f]quinoline]: on hPR [1], the EC50 was determined as 49 nM and the Emax was 58%. In addition, at hPR [2], the Emax is 44% and the IC50 was found to be 116 nM. For the same compound, the “hGR EC50 or IC50/hPR EC50” value on hGR is 365. Moreover, the “hMR EC50 or IC50/hPR EC50” value in assay [3] is over 1000. Besides, the “hER EC50 or IC50/hPR EC50” value in assay [4] was over 1000.
`CC1=CC(C)(C)Nc2ccc3c(c21)/C(=C/c1cc(F)ccc1C)Oc1c(F)cc(F)cc1-3` [Compound 19, 7,9-difluoro-5(Z)-(2-methyl-5-fluorobenzylidene)-1,2-dihydro-2,2,4-trimethyl-5H-chromeno[3,4-f]quinoline]: on hPR [1], the EC50 is 8.7 nM and the Emax was determined as 65%. Further, at hPR [2], the Emax came out at 35% and the IC50 was 360 nM. Also, on hGR, the “hGR EC50 or IC50/hPR EC50” value is 432. The “hMR EC50 or IC50/hPR EC50” value in assay [3] was over 1000. The “hER EC50 or IC50/hPR EC50” value in assay [4] is over 1000.
With `CC1=CC(C)(C)Nc2ccc3c(c21)/C(=C/Br)Oc1c(F)cc(F)cc1-3` [Compound 29, 7,9-difluoro-5(Z)-bromomethylidene-1,2-dihydro-2,2,4-trimethyl-5H-chromeno[3,4-f]quinoline], at hPR [1], the EC50 is 8.7 nM and the Emax came to 62%. At hPR [2], the Emax worked out at 40% and the IC50 amounted to 170 nM. Also, at hGR, the “hGR EC50 or IC50/hPR EC50” value came to 83. The “hMR EC50 or IC50/hPR EC50” value in assay [3] is on record as over 1000. In addition, in assay [4], the “hER EC50 or IC50/hPR EC50” value was over 1000.
On to `CC1=CC(C)(C)Nc2ccc3c(c21)/C(=C/c1cccs1)Oc1c(F)cc(F)cc1-3` [Compound 31, 7,9-difluoro-5(Z)-(2-thienylmethylidene)-1,2-dihydro-2,2,4-trimethyl-5H-chromeno[3,4-f]quinoline], for which, on hPR [1], the EC50 was 14 nM and the Emax was determined as 66%. In addition, at hPR [2], the Emax came out at 39% and the half-inhibitory concentration (IC50) was determined as 610 nM. Also, the “hGR EC50 or IC50/hPR EC50” value at hGR was 59. Further, the “hMR EC50 or IC50/hPR EC50” value in assay [3] was over 1000. Further, the “hER EC50 or IC50/hPR EC50” value in assay [4] is over 1000.
